Earlier results as cited in patent publication US20100203024A1 (priority 2006, published 2010).

Tested on: non-small-cell lung cancer
Settings: patients with refractory disease

## C#Cc1cccc(Nc2ncnc3cc(OCCOC)c(OCCOC)cc23)c1 [erlotinib]
  partial responses, percent of patients: 9%
